Data set [1] relates to IL-1β, IL-4, IL-8, IL-10 and IL-12. Kind of data set: Cytokine level in ear tissue (MSD mouse TH1/TH2 9-plex). It is filed as in vivo, mice. As to conditions: upon treatment with BMV.
Method: The remaining ear tissue from the 8 mm biopsy was cut into two halves, one of which was tape stripped before analysing the drug concentration and the other was used for cytokine analysis. Both were snap-frozen in liquid nitrogen and stored at −80° C. until the analysis was carried out.
The ear tissue was homogenized in 200 μl lysis buffer using a Precellys® 24 tissue homogenizer with a Cryolys cooling unit from Bertin Technologies (Montigny-le-Bretonneux, France). The lysis buffer was composed of 1 mM Na3VO4, 0.4% (v/v) nonyl phenoxypolyethoxylethanol (NP40) and the protease inhibitor Complete™ from Roche Diagnostics (Mannheim, Germany) dissolved in PBS. […] The supernatant was kept at −80° C. until the MSD® cytokine assay was performed. A determination of the total protein concentration was performed to normalize the sample concentration before the cytokine determination. […] Specific level of the cytokines IFN-γ, IL-1-β, IL-2, IL-4, IL-5, IL-8, IL-10, IL-12 total and TNF-α in the ear tissue were determined with a MSD® mouse TH1/TH2 9-plex Multi-Spot® 96-well 10 spot plate using a MSD® Sector Imager 6000 (Meso Scale Discovery, Gaithersburg, Md., USA). The MSD® assay was optimized for tissue use. […] Washing was repeated 3 times with 0.05% (v/v) polysorbate 20 before finally adding 150 μl read buffer diluted 1:2 in MilliQ water and reading the plate on the MSD® Sector Imager 6000.
Data set [2] can be described thus: In vitro skin penetration and permeation of 3H BMV, Franz type diffusion cells. It is filed as in vitro ADME, porcine. The following applies: barrier-impaired versus intact skin, applied in SLN. The protocol: The porcine ears were obtained from newly slaughtered pigs from the Danish Meat Trade College (Roskilde, Denmark). The ears were stored at −20° C. and thawed slowly at 4° C. before shaving and removing full-thickness skin from the back of the ears using a scalpel. Subcutaneous tissue was carefully removed with a scalpel and the skin was cut into appropriate pieces before freezing at −20° C. until use (after no more than 14 days). Two skin pieces were obtained from each ear, and they were balanced with respect to intact and barrier-impaired skin.
Skin barrier impairment was induced by 25 successive tape strippings applying D-Squame® tape discs (Cuderm Corp., Dallas, USA). 225 g/cm^2 pressure on the tape was applied with a D-Squame® tape applicator for 5 sec. (Cuderm Corp., Dallas, USA). […]
Penetration profiles of BMV and lipid were evaluated. ^3H-labelled BMV and ^14C-labelled lipid were used to study the penetration of BMV and lipid particles (distearate and tripalmitate) into intact and barrier-impaired skin.
The skin was mounted on Franz type diffusion cells with the dermis side facing the receptor medium (diffusion area 3.14 cm^2, recipient volume 10 ml, constant stirring, temperature kept at 32° C.). […] The exact amount of formulation applied was determined by weighing the spatula before and after application. After complete incubation, the skin was separated and analyzed. […]

Experimental findings from patent publication US20140079785A1, “COMPOSITION COMPRISING LIPID NANOPARTICLES AND A CORTICOSTEROID OR VITAMIN D DERIVATIVE” (priority 2011, published 2014) are described below.

SMILES strings stand for the structures.

As for `CCCCC(=O)O[C@]1(C(=O)CO)[C@@H](C)C[C@H]2[C@@H]3CCC4=CC(=O)C=C[C@]4(C)[C@@]3(F)[C@@H](O)C[C@@]21C` [BMV, Betamethasone-17-Valerate], in data set [1], the “concentration of IL-5 and TNF-α” value is “below the detection limit”. For the same molecule, the “increase in BMV penetration” value in data set [2] is listed as 3-60 fold.
